We go through 18 compounds from patent publication US11173151B2, “Substituted triazole derivatives and uses thereof” (BAYER AKTIENGESELLSCHAFT, priority 2017, dated 2021).

Assay [1] addresses T1, human V1a receptor (Homo sapiens, UniProt P37288).
T1 construct: expressed in transfected cells; host or cells: CHO K1 (ATCC), also stably transfected with a modified aequorin
Put plainly: Cellular in vitro assay for determining vasopressin receptor activity, V1a receptor cell line (CHO, aequorin luminescence). It counts as cell-based. The note with it: for IC50: CHO cell line transfected with human V1a receptor, [Arg]-vasopressin at EC50 concentration, read-out: IC50 hV1a; for ratio IC50 hV2/hV1a: selectivity ratio IC50 hV2 / IC50 hV1a. The method in brief: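 IC50 from inhibition of [Arg]-vasopressin (EC50 concentration)-evoked aequorin luminescence in CHO K1 cells, with 10-min compound pretreatment.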

In assay [2] the target is T2, human V2 receptor (Homo sapiens, UniProt P30518).
T2 construct: expressed in transfected cells; host or cells: CHO K1 (ATCC) expressing firefly luciferase under a CRE-responsive promoter
T2 sequence (P30518 whole entry): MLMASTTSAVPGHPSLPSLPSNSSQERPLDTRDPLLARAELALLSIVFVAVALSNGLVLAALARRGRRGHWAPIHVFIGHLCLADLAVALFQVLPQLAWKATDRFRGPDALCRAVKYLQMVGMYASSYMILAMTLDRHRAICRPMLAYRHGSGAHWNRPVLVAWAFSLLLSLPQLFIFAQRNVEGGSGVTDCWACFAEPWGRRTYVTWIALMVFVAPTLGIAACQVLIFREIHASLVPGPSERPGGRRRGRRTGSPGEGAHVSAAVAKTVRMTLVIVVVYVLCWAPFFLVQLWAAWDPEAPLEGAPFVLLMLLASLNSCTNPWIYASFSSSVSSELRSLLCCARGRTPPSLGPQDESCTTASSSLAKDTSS
Put plainly: Cellular in vitro assay for determining vasopressin receptor activity, V2 receptor cell line (CHO, CRE-luciferase). Format: cell-based. The settings on record: CHO cell line transfected with human V2 receptor; [Arg8]-vasopressin at EC50 concentration, 3 hours; read-out: IC50 hV2.

T1 sequence (P37288 whole entry): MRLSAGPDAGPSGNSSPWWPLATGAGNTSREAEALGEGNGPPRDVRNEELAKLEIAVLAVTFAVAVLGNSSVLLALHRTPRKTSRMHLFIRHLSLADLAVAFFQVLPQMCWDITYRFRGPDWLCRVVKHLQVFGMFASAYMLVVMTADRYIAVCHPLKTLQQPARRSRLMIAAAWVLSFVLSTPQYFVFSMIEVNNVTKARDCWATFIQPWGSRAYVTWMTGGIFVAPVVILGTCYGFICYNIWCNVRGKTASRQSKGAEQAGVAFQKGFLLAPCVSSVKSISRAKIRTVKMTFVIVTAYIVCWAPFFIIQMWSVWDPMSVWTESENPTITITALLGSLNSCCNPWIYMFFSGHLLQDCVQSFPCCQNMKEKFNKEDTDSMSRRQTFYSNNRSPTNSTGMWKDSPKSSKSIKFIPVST

Usually IC50 stands for the concentration that inhibits the measured activity by half. In the case of `O=C(NCC1CC1)c1ccccc1-n1cnc(Cn2nc(-c3ccc(Cl)cc3)n(C[C@H](O)C(F)(F)F)c2=O)n1` [Example 325, 2-[3-({3-(4-Chlorophenyl)-5-oxo-4-[(2S)-3,3,3-trifluoro-2-hydroxypropyl]-4,5-dihydro-1H-1,2,4-triazol-1-yl}methyl)-1H-1,2,4-triazol-1-yl]-N-(cyclopropylmethyl)benzamide], in assay [1], the IC50 is 0.00101 µM and the “ratio IC50 hV2/hV1a” value is listed as 118.8. For the same compound, the IC50 in assay [2] worked out at 0.12 µM.

With `CC1(C)CCCN(C(=O)c2ccccc2-n2cnc(Cn3nc(-c4ccc(Cl)cc4)n(C[C@H](O)C(F)(F)F)c3=O)n2)C1` [Example 327, 5-(4-Chlorophenyl)-2-[(1-{2-[(3,3-dimethylpiperidin-1-yl)carbonyl]phenyl}-1H-1,2,4-triazol-3-yl)methyl]-4-[(2S)-3,3,3-trifluoro-2-hydroxypropyl]-2,4-dihydro-3H-1,2,4-triazol-3-one], in assay [1], the IC50 was determined as 0.0044 µM and the “ratio IC50 hV2/hV1a” value is given as 112.5. Further, in assay [2], the IC50 was determined as 0.495 µM.

With `CN(C(=O)c1ccccc1-n1cnc(Cn2nc(-c3ccc(Cl)cc3)n(C[C@H](O)C(F)(F)F)c2=O)n1)C1CCCCC1` [Example 329, 2-[3-({3-(4-Chlorophenyl)-5-oxo-4-[(2S)-3,3,3-trifluoro-2-hydroxypropyl]-4,5-dihydro-1H-1,2,4-triazol-1-yl}methyl)-1H-1,2,4-triazol-1-yl]-N-cyclohexyl-N-methylbenzamide], the IC50 in assay [1] was determined as 0.0111 µM; in assay [2] it was 1.9 µM. The “ratio IC50 hV2/hV1a” value in assay [1] came to 171.9.

For the compound `CN(Cc1ccco1)C(=O)c1ccccc1-n1cnc(Cn2nc(-c3ccc(Cl)cc3)n(C[C@H](O)C(F)(F)F)c2=O)n1` [Example 330, 2-[3-({3-(4-Chlorophenyl)-5-oxo-4-[(2S)-3,3,3-trifluoro-2-hydroxypropyl]-4,5-dihydro-1H-1,2,4-triazol-1-yl}methyl)-1H-1,2,4-triazol-1-yl]-N-(furan-2-ylmethyl)-N-methylbenzamide], in assay [1], the IC50 came to 0.00995 µM and the “ratio IC50 hV2/hV1a” value is given as 135.7. The IC50 in assay [2] came to 1.35 µM.

For the compound `CN1CCCN(C(=O)c2ccccc2-n2cnc(Cn3nc(-c4ccc(Cl)cc4)n(C[C@H](O)C(F)(F)F)c3=O)n2)CC1` [Example 331, 5-(4-Chlorophenyl)-2-[(1-{2-[(4-methyl-1,4-diazepan-1-yl)carbonyl]phenyl}-1H-1,2,4-triazol-3-yl)methyl]-4-[(2S)-3,3,3-trifluoro-2-hydroxypropyl]-2,4-dihydro-3H-1,2,4-triazol-3-one], in assay [1], the IC50 was 0.033 µM and the “ratio IC50 hV2/hV1a” value was found to be 233.3. In assay [2], the IC50 stood at 7.7 µM.

`CN(C)[C@H]1CCN(C(=O)c2ccccc2-n2cnc(Cn3nc(-c4ccc(Cl)cc4)n(C[C@H](O)C(F)(F)F)c3=O)n2)C1` [Example 332, 5-(4-Chlorophenyl)-2-{[1-(2-{[(3S)-3-(dimethylamino)pyrrolidin-1-yl]carbonyl}phenyl)-1H-1,2,4-triazol-3-yl]methyl}-4-[(2S)-3,3,3-trifluoro-2-hydroxypropyl]-2,4-dihydro-3H-1,2,4-triazol-3-one]: in assay [1], the IC50 stood at 0.0205 µM and the “ratio IC50 hV2/hV1a” value was determined as 509.8. In assay [2], the IC50 was found to be 10.5 µM.

Take `CN(C)[C@@H]1CCN(C(=O)c2ccccc2-n2cnc(Cn3nc(-c4ccc(Cl)cc4)n(C[C@H](O)C(F)(F)F)c3=O)n2)C1` [Example 333, 5-(4-Chlorophenyl)-2-{[1-(2-{[(3R)-3-(dimethylamino)pyrrolidin-1-yl]carbonyl}phenyl)-1H-1,2,4-triazol-3-yl]methyl}-4-[(2S)-3,3,3-trifluoro-2-hydroxypropyl]-2,4-dihydro-3H-1,2,4-triazol-3-one]: in assay [1], the IC50 came to 0.00555 µM and the “ratio IC50 hV2/hV1a” value was determined as 1612.6. Besides, the IC50 in assay [2] worked out at 8.95 µM.

`O=C(c1ccccc1-n1cnc(Cn2nc(-c3ccc(Cl)cc3)n(C[C@H](O)C(F)(F)F)c2=O)n1)N1CCSC1` [Example 334, 5-(4-Chlorophenyl)-2-({1-[2-(1,3-thiazolidin-3-ylcarbonyl)phenyl]-1H-1,2,4-triazol-3-yl}methyl)-4-[(2S)-3,3,3-trifluoro-2-hydroxypropyl]-2,4-dihydro-3H-1,2,4-triazol-3-one]: in assay [1], the IC50 stood at 0.00295 µM and the “ratio IC50 hV2/hV1a” value is 289.8. In assay [2], the IC50 was 0.855 µM.

`COC[C@H]1CCCN1C(=O)c1ccccc1-n1cnc(Cn2nc(-c3ccc(Cl)cc3)n(C[C@H](O)C(F)(F)F)c2=O)n1` [Example 335, 5-(4-Chlorophenyl)-2-{[1-(2-{[(2R)-2-(methoxymethyl)pyrrolidin-1-yl]carbonyl}phenyl)-1H-1,2,4-triazol-3-yl]methyl}-4-[(2S)-3,3,3-trifluoro-2-hydroxypropyl]-2,4-dihydro-3H-1,2,4-triazol-3-one]: the IC50 was determined as 0.0155 µM in assay [1] and 1.1 µM in assay [2]. Further, the “ratio IC50 hV2/hV1a” value in assay [1] amounted to 71.3.

On to `CC1(C)CCCN1C(=O)c1ccccc1-n1cnc(Cn2nc(-c3ccc(Cl)cc3)n(C[C@H](O)C(F)(F)F)c2=O)n1` [Example 336, 5-(4-Chlorophenyl)-2-[(1-{2-[(2,2-dimethylpyrrolidin-1-yl)carbonyl]phenyl}-1H-1,2,4-triazol-3-yl)methyl]-4-[(2S)-3,3,3-trifluoro-2-hydroxypropyl]-2,4-dihydro-3H-1,2,4-triazol-3-one], for which, in assay [1], the IC50 turned out to be 0.0028 µM and the “ratio IC50 hV2/hV1a” value worked out at 453.6. In assay [2], the IC50 came to 1.27 µM.

As to `O=C(c1ccccc1-n1cnc(Cn2nc(-c3ccc(Cl)cc3)n(C[C@H](O)C(F)(F)F)c2=O)n1)N1CCCCC1` [Example 338, 5-(4-Chlorophenyl)-2-({1-[2-(piperidin-1-ylcarbonyl)phenyl]-1H-1,2,4-triazol-3-yl}methyl)-4-[(2S)-3,3,3-trifluoro-2-hydroxypropyl]-2,4-dihydro-3H-1,2,4-triazol-3-one], in assay [1], the IC50 came to 0.0016 µM and the “ratio IC50 hV2/hV1a” value turned out to be 600.0. Further, the IC50 in assay [2] amounted to 0.96 µM.

Regarding `COC[C@@H]1CCCN1C(=O)c1ccccc1-n1cnc(Cn2nc(-c3ccc(Cl)cc3)n(C[C@H](O)C(F)(F)F)c2=O)n1` [Example 339, 5-(4-Chlorophenyl)-2-{[1-(2-{[(2S)-2-(methoxymethyl)pyrrolidin-1-yl]carbonyl}phenyl)-1H-1,2,4-triazol-3-yl]methyl}-4-[(2S)-3,3,3-trifluoro-2-hydroxypropyl]-2,4-dihydro-3H-1,2,4-triazol-3-one], in assay [1], the IC50 was 0.00275 µM and the “ratio IC50 hV2/hV1a” value is listed as 1327.3. Also, in assay [2], the IC50 turned out to be 3.65 µM.

In the case of `O=C(NC1CC1)c1ccccc1-n1cnc(Cn2nc(-c3ccc(Cl)cc3)n(C[C@H](O)C(F)(F)F)c2=O)n1` [Example 340, 2-[3-({3-(4-Chlorophenyl)-5-oxo-4-[(2S)-3,3,3-trifluoro-2-hydroxypropyl]-4,5-dihydro-1H-1,2,4-triazol-1-yl}methyl)-1H-1,2,4-triazol-1-yl]-N-cyclopropylbenzamide], in assay [1], the IC50 turned out to be 0.0085 µM and the “ratio IC50 hV2/hV1a” value is on record as 45.9. In assay [2], the IC50 came out at 0.39 µM.

Consider `CC(C)CNC(=O)c1ccccc1-n1cnc(Cn2nc(-c3ccc(Cl)cc3)n(C[C@H](O)C(F)(F)F)c2=O)n1` [Example 341, 2-[3-({3-(4-Chlorophenyl)-5-oxo-4-[(2S)-3,3,3-trifluoro-2-hydroxypropyl]-4,5-dihydro-1H-1,2,4-triazol-1-yl}methyl)-1H-1,2,4-triazol-1-yl]-N-(2-methylpropyl)benzamide], for which, in assay [1], the IC50 is 0.00155 µM and the “ratio IC50 hV2/hV1a” value was found to be 132.3. The IC50 in assay [2] worked out at 0.205 µM.

Consider `O=C(NC1CCCCCC1)c1ccccc1-n1cnc(Cn2nc(-c3ccc(Cl)cc3)n(C[C@H](O)C(F)(F)F)c2=O)n1` [Example 342, 2-[3-({3-(4-Chlorophenyl)-5-oxo-4-[(2S)-3,3,3-trifluoro-2-hydroxypropyl]-4,5-dihydro-1H-1,2,4-triazol-1-yl}methyl)-1H-1,2,4-triazol-1-yl]-N-cycloheptylbenzamide], for which the IC50 stood at 0.00615 µM in assay [1] and 0.365 µM in assay [2]. Besides, the “ratio IC50 hV2/hV1a” value in assay [1] was determined as 59.3.

On to `O=C(NC1CCCC1)c1ccccc1-n1cnc(Cn2nc(-c3ccc(Cl)cc3)n(C[C@H](O)C(F)(F)F)c2=O)n1` [Example 343, 2-[3-({3-(4-Chlorophenyl)-5-oxo-4-[(2S)-3,3,3-trifluoro-2-hydroxypropyl]-4,5-dihydro-1H-1,2,4-triazol-1-yl}methyl)-1H-1,2,4-triazol-1-yl]-N-cyclopentylbenzamide], for which, in assay [1], the IC50 came out at 0.00087 µM and the “ratio IC50 hV2/hV1a” value is 118.4. In addition, the IC50 in assay [2] worked out at 0.103 µM.

For `CC(C)(C)NC(=O)c1ccccc1-n1cnc(Cn2nc(-c3ccc(Cl)cc3)n(C[C@H](O)C(F)(F)F)c2=O)n1` [Example 344, N-Tert-butyl-2-[3-({3-(4-chlorophenyl)-5-oxo-4-[(2S)-3,3,3-trifluoro-2-hydroxypropyl]-4,5-dihydro-1H-1,2,4-triazol-1-yl}methyl)-1H-1,2,4-triazol-1-yl]benzamide], in assay [1], the IC50 was found to be 0.00093 µM and the “ratio IC50 hV2/hV1a” value was 5.0. Also, in assay [2], the IC50 was 0.0047 µM.

Regarding `CC[C@H](C)NC(=O)c1ccccc1-n1cnc(Cn2nc(-c3ccc(Cl)cc3)n(C[C@H](O)C(F)(F)F)c2=O)n1` [Example 346, N-[(2S)-Butan-2-yl]-2-[3-({3-(4-chlorophenyl)-5-oxo-4-[(2S)-3,3,3-trifluoro-2-hydroxypropyl]-4,5-dihydro-1H-1,2,4-triazol-1-yl}methyl)-1H-1,2,4-triazol-1-yl]benzamide], the figures for the concentration for half-maximal inhibition (IC50) in assay [1] and in assay [2] were 0.00175 µM and 0.119 µM, respectively. Also, the “ratio IC50 hV2/hV1a” value in assay [1] turned out to be 67.7.
